Patent publication US6127382A, “Amines substituted with a tetrahydroquinolinyl group an aryl or heteroaryl group and an alkyl group, having retinoid-like biological activity” (Allergan Sales, Inc., priority 1999, dated 2000)

Assays:
RXRα = molecular target: T1, RXRα (Homo sapiens, UniProt P19793); test: ligand binding assay, RXRα; details: read-out: RXR Bind Ki α
T1 construct: expressed in transfected cells
T1 sequence (P19793 1-462): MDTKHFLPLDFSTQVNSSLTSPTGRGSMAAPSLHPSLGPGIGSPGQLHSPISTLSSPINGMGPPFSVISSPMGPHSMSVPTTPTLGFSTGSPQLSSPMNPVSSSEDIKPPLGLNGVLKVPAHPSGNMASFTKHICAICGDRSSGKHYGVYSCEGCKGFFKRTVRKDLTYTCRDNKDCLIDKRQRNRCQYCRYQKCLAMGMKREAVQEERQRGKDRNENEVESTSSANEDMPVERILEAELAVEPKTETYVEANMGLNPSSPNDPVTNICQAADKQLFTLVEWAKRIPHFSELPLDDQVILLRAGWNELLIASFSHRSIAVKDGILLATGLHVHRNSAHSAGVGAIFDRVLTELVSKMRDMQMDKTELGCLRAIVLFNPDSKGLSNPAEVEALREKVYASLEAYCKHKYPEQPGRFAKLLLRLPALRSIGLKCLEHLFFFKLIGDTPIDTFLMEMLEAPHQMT
Excerpt: (§1) Other assays described below, measure the ability of the compounds of the present invention to bind to, and/or activate various retinoid receptor subtypes. When in these assays a compound binds to a given receptor subtype and activates the transcription of a reporter gene through that subtype, then the compound is considered an agonist of that receptor subtype. […] In the below described assays the ability of the compounds to bind to RARα, RARβ, RARγ, RXRα, RXRβ and RXRγ receptors, and the ability or inability of the compounds to activate transcription of a reporter gene through these receptor subtypes can be tested. […] However, some of the compounds of the invention may behave as retinoid antagonists or partial antagonists and/or as inverse agonists. Because of the complex distribution of the different retinoid receptors in various organs of the mammalian body partial agonists and partial antagonists and compounds which have the characteristics of both may lend themselves to particularly useful therapeutic applications and may avoid serious side effects of conventional retinoid drugs.
(§2) A holoreceptor transactivation assay and a ligand binding assay which measure the antagonist/agonist like activity of the compounds of the invention, or their ability to bind to the several retinoid receptor subtypes, respectively, are described in published PCT Application No. WO WO93/11755 (particularly on pages 30-33 and 37-41) published on Jun. 24, 1993, the specification of which is also incorporated herein by reference. A detailed experimental procedure for holoreceptor transactivations has been described by Heyman et al. Cell 68, 397-406, (1992); Allegretto et al. J. Biol. Chem. 268, 26625-26633, and Mangelsdorf et al. The Retinoids: Biology, Chemistry and Medicine, pp 319-349, Raven Press Ltd., New York, which are expressly incorporated herein by reference. The results obtained in this assay are expressed in EC50 numbers, as they are also in the chimeric receptor transactivation assay. The results of ligand binding assay are expressed in Kd numbers. (See Cheng et al. Biochemical Pharmacology Vol. 22 pp 3099-3108, expressly incorporated herein by reference.)
(§3) Table 1 discloses the activity of certain exemplary compounds of the invention in the above-described chimeric receptor transactivation assay, holoreceptor transactivation assay and a ligand binding assays. Particularly, the transactivation data pertaining to RAR receptors were obtained in the chimeric assay, and the data pertaining to transactivation of RXR receptors were obtained in the holoreceptor transactivation assay.

RARβ = molecular target: T2, RARβ (Homo sapiens, UniProt P10826); test: ligand binding assay, RARβ; details: read-out: RAR Bind Ki β
T2 sequence (P10826 1-448 isoform P10826-2): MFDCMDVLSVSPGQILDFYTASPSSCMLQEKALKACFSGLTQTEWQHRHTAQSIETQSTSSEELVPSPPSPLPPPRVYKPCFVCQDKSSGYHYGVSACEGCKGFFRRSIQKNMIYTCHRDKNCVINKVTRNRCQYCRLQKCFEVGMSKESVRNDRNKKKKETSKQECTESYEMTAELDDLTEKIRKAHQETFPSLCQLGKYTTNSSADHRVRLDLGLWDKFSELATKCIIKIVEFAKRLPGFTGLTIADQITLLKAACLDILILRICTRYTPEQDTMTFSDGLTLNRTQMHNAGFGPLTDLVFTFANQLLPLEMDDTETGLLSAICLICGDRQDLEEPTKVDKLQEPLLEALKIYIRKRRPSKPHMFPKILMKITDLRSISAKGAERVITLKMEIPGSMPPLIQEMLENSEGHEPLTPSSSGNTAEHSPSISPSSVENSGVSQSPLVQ
Excerpt: as §1, §2, §3

Ki (RXRα) [nM] | Ki (RARβ) [nM] | SMILES
221 | – | Cc1cc2c(cc1N(C)c1ccc(C(=O)O)cc1)N(C(C)C)CCC2(C)C [Compound 51, 4-[(1-Isopropyl-4,4,6-trimethyl-1,2,3,4-tetrahydro-quinolin-7-yl)-methyl-amino]-benzoic acid]
10 | > 10000 | CCN(c1ccc(C(=O)O)cc1)c1ccc2c(c1)N(C(C)C)CCC2(C)C [Compound 38, 4-[(1-Isopropyl-4,4-dimethyl-1,2,3,4-tetrahydroquinolin-7-yl)ethylamino]benzoic acid]
44 | – | CCCN(c1ccc(C(=O)O)cc1)c1cc2c(cc1C)C(C)(C)CCN2C(C)C [Compound 53, 4-[(1-Isopropyl-4,4,6-trimethyl-1,2,3,4-tetrahydro-quinolin-7-yl)-propyl-amino]-benzoic acid]
448 | > 10000 | CCN(c1ccc(C(=O)O)cc1)c1cc2c(cc1C)N(C(C)C)CCC2(C)C [Compound 24, 4-[(1-Isopropyl-4,4,7-trimethyl-1,2,3,4-tetrahydroquinolin-6-yl)ethylamino]benzoic acid]
9000 | > 30000 | CCN(c1ccc(C(=O)O)cc1)c1ccc2c(c1)C(C)(C)CC(=O)N2C(C)C [Compound 6, 4-[(1-Isopropyl-4,4-dimethyl-2-oxo-1,2,3,4-tetrahydroquinolin-6-yl)ethylamino]benzoic Acid]

More lines, now with the values behind:

SMILES | Ki (RXRα) [nM] | Ki (RARβ) [nM]
Cc1cc2c(cc1N(C)c1ccc(C(=O)O)cc1)C(C)(C)CCN2C(C)C [Compound 22, 4-[(1-Isopropyl-4,4,7-trimethyl-1,2,3,4-tetrahydroquinolin-6-yl)methylamino]benzoic acid] | 1200 | > 10000
CC(C)CN(c1ccc(C(=O)O)cc1)c1ccc2c(c1)N(C(C)C)CCC2(C)C [Compound 39, 4-[(1-Isopropyl-4,4-dimethyl-1 2,3,4-tetrahydroquinolin-7-yl)isobutylamino]benzoic acid] | 49 | > 10000
CC(C)CCN(c1ccc(C(=O)O)cc1)c1ccc2c(c1)C(C)(C)CCN2C(C)C [Compound 14, 4-[(1-Isopropyl-4,4-dimethyl-1,2,3,4-tetrahydroquinolin-6-yl)(3-methylbutyl)amino]-benzoic Acid] | 904 | 7700
Cc1cc2c(cc1Nc1ccc(C(=O)O)cc1)N(C(C)C)CCC2(C)C [Compound 50, 4-(1-Isopropyl-4,4,6-trimethyl-1,2,3,4-tetrahydro-quinolin-7-ylamino)-benzoic acid] | 327 | –
Cc1cc2c(cc1N(CC1CC1)c1ccc(C(=O)O)cc1)C(C)(C)CCN2C(C)C [Compound 26, 4-[(1-Isopropyl-4,4,7-trimethyl-1,2,3,4-tetrahydro-quinolin-6-yl)(cyclopropylmethyl)amino]benzoic acid] | 413 | 11000
CCN(c1ccc(C(=O)O)cc1)c1cc2c(cc1C)C(C)(C)CCN2C(C)C [Compound 52, 4-[-(1-Isopropyl-4,4,6-trimethyl-1,2,3,4-tetrahydro-quinolin-7-yl)ethylamino]-benzoic acid] | 28 | –
CC(C)N1CCC(C)(C)c2ccc(N(CC3CC3)c3ccc(C(=O)O)cc3)cc21 [Compound 40, 4-[(1-Isolpropyl-4,4-dimethyl-1,2,3,4-tetrahydroquinolin-7-yl)(cylopropylmethyl)amino]benzoic acid] | 9 | 24000
CCN(c1ccc(C(=O)O)cc1)c1ccc2c(c1)C(C)(C)CCN2C(C)C [Compound 12, 4-[(1-Isopropyl-4,4-dimethyl-1,2,3,4-tetrahydroquinolin-6-yl)ethylamino]benzoic acid] | 136 | 7900
CC(C)N1CCC(C)(C)c2cc(N(C)c3ccc(C(=O)O)cc3)ccc21 [Compound 10, 4-[(1-Isopropyl-4,4-dimethyl-1,2,3,4-tetrahydroquinolin-6-yl)methylamino]benzoic Acid] | > 1000 | > 10000
